What was measured:
[1] = system: rats subjected to an anterior MI; details: intravenous ribose for 14 days previous to the inducement of MI; cited from earlier work
[2] = system: myocardial dysfunction resulting from globally induced ischemia during cardiac surgical procedures; format: in vivo, human
Protocol: B. A preconditioning study was performed in human patients scheduled for surgery.
Inclusion criteria were: • Males or females aged 18 or older • Patients with documented coronary artery disease undergoing CABG with an ejection fraction (EF) of 35% based on echocardiography, radionuclide imaging or cardiac catheterization done within eight weeks of surgery. (If more than one method was used to evaluate EF during this period, the mean values of the various methods were 35%). • Patients undergoing single or double valve replacement with documented coronary artery disease also undergoing CABG; or patients undergoing single or double valve replacement without CABG • Serum creatinine of <2.35 mg/dl • For females of childbearing potential, a negative pregnancy test. • Signed consent forms.
The test article, placebo or ribose, was dispensed according to computer-generated randomization schedule either for patients undergoing CABG only or for patients undergoing heart valve surgery +/−CABG. All patients received a high dose narcotic anaesthesia technique consisting of either fentanyl (50-100 μg/kg) or sufentanil (10-20 μg/kg) and midazolam. No restriction was placed on the type of anaesthetic agents administered. The anaesthesiologists and surgeons responsible for the care of the patents made the clinical decision to use inotropic support, intra-aortic balloon pump support or post bypass circulatory support based on their knowledge of patients requirements and accepted medical practice and without regard to test article status. The test article infusion was started intravenously at the time of aortic cross clamping and continued until the pulmonary artery catheters introducer was removed or for five days (120) hours whichever occurred first. The surgeons responsible for the clinical care of the patients removed the pulmonary artery catheter cordis without regard to test article stats.
Hemodynamic measurements consisting of heart rate, blood pressure, pulmonary artery pressures, pulmonary capillary wedge pressure (PCWP), central venous pressure (CVP) and thermodilution cardiac index (CI) were obtained at the following time intervals: immediately prior to induction of anaesthesia, post induction of anaesthesia prior to sternotomy, post sternotomy prior to initiation of cardiopulmonary bypass, upon successful termination of cardiopulmonary bypass prior to sternal closure and prior to reversal of heparinization with protamine, post closure of the sternum, upon arrival in the intensive care unit and at one or two hour intervals until the pulmonary artery a catheter was removed.
Transesophageal echocardiography data (H.P. Sonos OR, 5.0 MHz, Andover, Mass.) was collected at the following time intervals: post induction of anaesthesia prior to sternotomy, and immediately post closure of the sternum. Transthoracic echocardiography (H.P. Sonos 1500. 2.5 MHz, Andover, Mass.) measurements were made on day three and day seven of the study period. For both the transesophageal and transthoracic echocardiograms, the following long axis and short axis mid-papillary area changes were measured in triplicate by acoustic quantification techniques: end diastolic area (EDA), end systolic area (ESA), fractional area change (FAC), +dA/dt and −dA/dt. All area change data were also analyzed by manual off line analysis. EF was also determined off line using a long axis view, In addition, regional wall motion was quantified as the following: normal=1, hypokinetic=2, akinetic=3 and dyskinetic=4. The wall motion index score (WMIS) and percentage normal myocardium were calculated by reading a maximum of sixteen segments. Echocardiography data for evaluating wall motion and area change was analyzed only if greater than 75% of the endocardial border could be visualized through a complete cardiac cycle. Off line analysis was performed on an Image View echocardiography workstation (Nova Microsonics, Allendale, N.J.). […]

healthy dog hearts = details: administration immediately at reperfusion and continuing for at least four days; cited from earlier work
[3] = system: patients undergoing OPCABG; test: metabolically directed protocol: oral D-ribose prior to and following OPCABG; format: in vivo, human
From the text: (§1) Following the initial study described in Example 2, 366 consecutive patients, 41-88 years of age, undergoing OPCABG were enrolled. Of these, 89 had recent MIs and seven presented with MIs within one to seven days. Prospectively collected data included comorbidities, hemodynamics and outcomes. All patients were managed with a protocol emphasizing normoglycemia, normothermia and reduced inflammation. Group 1 (n=308) received multiple oral doses (5 gram/dose) of D-ribose prior to and following surgery. […] Otherwise, both groups had similar preoperative characteristics including ejection fraction (EJ) and Society for Thoracic Surgery (STS) Risk Indices with nonsignificant trends in the increased comorbidities in Group 1.

[4] = system: acute, first response MI patients; test: first response acute MI patients given D-ribose (subset of Group 1); format: in vivo, human; details: seven first response MI patients
From the text: as §1
A. While these studies are promising, neither replicates the clinical situation of a patient presenting at first response with an acute myocardial infarction, where time is of the essence. In most cases, MI is a spontaneous event, but an MI can be induced during a procedure such as angiogram, angioplasty or dobutamine echocardiography. Such a patient is generally in the process of compromising cardiac function.
It should also be mentioned that these seven patients are included in Group 1 of Table I. With preloading with D-ribose, they were able to maintain and slightly increase their CI in comparison to the total group.

[5] = Group 1, oral D-ribose, p<0.001 versus Group 2

For `O=C[C@H](O)[C@H](O)[C@H](O)CO` [D-ribose], the “parameters of heart function (LV diastolic diameter, LV systolic diameter, ejection fraction, shortening fraction)” value [1] is given as “Significant improvement”, the “patients who developed hypoglycemia (fingerstick glucose <70 mg/dl)” value ([2]; both, human, in vivo) is given as 28% and the lowest glucose level ([2]; human, in vivo) is given as 31 mg/dL. For the same molecule, the “mean glucose level in those patients developing hypoglycemia” value ([2]; human, in vivo) was 58 mg/dL, the “neurological or other clinical symptoms associated with hypoglycemia” value ([2]; human, in vivo) was “None” and the “subjects in whom study drug infusion was stopped because of hypoglycemia” value ([2]; human, in vivo) was “two”. The “mean Day 7 EF” value ([2]; ribose treated patients, Day 7, echocardiography, IV infusion 100 mg/kg/hr) was 41%, the “mean baseline EF” value ([2]; ribose treated patients, baseline, echocardiography, IV infusion 100 mg/kg/hr) was 44% and the ATP recovery (healthy dog hearts) was “enhanced ATP recovery”. For the same molecule, the postoperative death ([3]; Group 1) was “one”, the “time in intensive care” value ([3]; Group 1 (n=308), multiple oral doses 5 gram/dose prior to and following surgery, trend not significant) was 72 h and the “requirement for IABP” value ([3]; Group 1 (n=308), oral D-ribose, trend not significant) was 12%. For the same molecule, the “increase in CI after surgery” value [3, 5] was 0.8, the “patients demonstrating an increase in CI after OPCABG” value [3, 5] was 86% and the “Postop CI” value ([3]; Group 1, postoperative cardiac index) was 3.0 ± 0.7. The “Preop CI” value ([3]; Group 1, preoperative cardiac index) was 2.3 ± 0.5, the “Change (Preop CI to Postop CI)” value ([3]; Group 1 of Table I) was “+0.07” and the “Change (Preop CI to Postop CI)” value [4] was “+0.41”. For the same molecule, the “Postop CI” value [4] was 2.60 ± 0.4 and the “Preop CI” value [4] was 2.19 ± 0.7.
